Measured values from ChEMBL document CHEMBL1155271, “Synthesis, crystal structures and antibacterial activity studies of aza-derivatives of phytoalexin from cotton plant--gossypol” (2009).
≈ marks a conversion by molar mass, not a printed value. Calls of active or inactive are those of the source. No cut-off for these calls is given here.

How the values were obtained:
Format in all cases: functional
Staphylococcus aureus [1] = assay: Antimicrobial activity against Methicillin susceptible Staphylococcus aureus 213/7 by twofold dilution technique
Staphylococcus aureus [2] = assay: Antimicrobial activity against Methicillin susceptible Staphylococcus aureus 237/7 by twofold dilution technique
Staphylococcus aureus [3] = assay: Antimicrobial activity against Methicillin susceptible Staphylococcus aureus 238/7 by twofold dilution technique
Staphylococcus aureus [4] = assay: Antimicrobial activity against Methicillin susceptible Staphylococcus aureus 239/7 by twofold dilution technique
Staphylococcus aureus [5] = assay: Antimicrobial activity against Methicillin susceptible Staphylococcus aureus 242/7 by twofold dilution technique
Staphylococcus aureus [6] = assay: Antimicrobial activity against Methicillin susceptible Staphylococcus aureus 243/7 by twofold dilution technique
Staphylococcus aureus [7] = assay: Antimicrobial activity against methicillin-resistant Staphylococcus aureus 140/6 by twofold dilution technique
Staphylococcus aureus [8] = assay: Antimicrobial activity against methicillin-resistant Staphylococcus aureus 141/6 by twofold dilution technique
Staphylococcus aureus [9] = assay: Antimicrobial activity against methicillin-resistant Staphylococcus aureus 143/6 by twofold dilution technique
Staphylococcus aureus [10] = assay: Antimicrobial activity against methicillin-resistant Staphylococcus aureus 144/6 by twofold dilution technique
Staphylococcus aureus [11] = assay: Antimicrobial activity against methicillin-resistant Staphylococcus aureus 146/6 by twofold dilution technique
Staphylococcus aureus [12] = assay: Antimicrobial activity against methicillin-resistant Staphylococcus aureus 200/7 by twofold dilution technique
Staphylococcus aureus [13] = assay: Antimicrobial activity against methicillin-resistant Staphylococcus aureus 217/7 by twofold dilution technique
Staphylococcus aureus [14] = assay: Antimicrobial activity against methicillin-resistant Staphylococcus aureus 218/7 by twofold dilution technique
Staphylococcus aureus [15] = assay: Antimicrobial activity against methicillin-resistant Staphylococcus aureus 236/7 by twofold dilution technique
Staphylococcus aureus [16] = assay: Antimicrobial activity against Staphylococcus aureus NCTC 4163 at 400 ug after 18 hrs by disk diffusion method; details: NCTC 4163, 18 h, read-out: DIZ
[17] = system: Staphylococcus epidermidis; assay: Antimicrobial activity against Staphylococcus epidermidis ATCC 12228 at 400 ug after 18 hrs by disk diffusion method; details: ATCC 12228, 18 h, read-out: DIZ
Bacillus subtilis [18] = assay: Antimicrobial activity against Bacillus subtilis ATCC 6633 at 400 ug after 18 hrs by disk diffusion method; details: ATCC 6633, 18 h, read-out: DIZ
Bacillus cereus [19] = assay: Antimicrobial activity against Bacillus cereus ATCC 11778 at 400 ug after 18 hrs by disk diffusion method; details: ATCC 11778, 18 h, read-out: DIZ
Enterococcus hirae [20] = assay: Antimicrobial activity against Enterococcus hirae ATCC 10541 at 400 ug after 18 hrs by disk diffusion method; details: ATCC 10541, 18 h, read-out: DIZ
Micrococcus luteus [21] = assay: Antimicrobial activity against Micrococcus luteus ATCC 9341 at 400 ug after 18 hrs by disk diffusion method
Micrococcus luteus [22] = assay: Antimicrobial activity against Micrococcus luteus ATCC 10240 at 400 ug after 18 hrs by disk diffusion method; details: ATCC 10240, 18 h, read-out: DIZ
Staphylococcus aureus [23] = assay: Antimicrobial activity against Staphylococcus aureus ATCC 25923 at 400 ug after 18 hrs by disk diffusion method; details: ATCC 25923, 18 h, read-out: DIZ
Staphylococcus aureus [24] = assay: Antimicrobial activity against Staphylococcus aureus ATCC 6538 at 400 ug after 18 hrs by disk diffusion method; details: ATCC 6538, 18 h, read-out: DIZ
Staphylococcus aureus [25] = assay: Antimicrobial activity against Staphylococcus aureus ATCC 29213 at 400 ug after 18 hrs by disk diffusion method; details: ATCC 29213, 18 h, read-out: DIZ
Staphylococcus aureus [26] = assay: Antimicrobial activity against Staphylococcus aureus NCTC 4163 after 18 hrs by twofold dilution technique; details: NCTC 4163, 18 h
Staphylococcus aureus [27] = assay: Antimicrobial activity against Staphylococcus aureus ATCC 25923 after 18 hrs by twofold dilution technique; details: ATCC 25923, 18 h
Staphylococcus aureus [28] = assay: Antimicrobial activity against Staphylococcus aureus ATCC 6538 after 18 hrs by twofold dilution technique; details: ATCC 6538, 18 h
Staphylococcus aureus [29] = assay: Antimicrobial activity against Staphylococcus aureus ATCC 29213 after 18 hrs by twofold dilution technique; details: ATCC 29213, 18 h
[30] = system: Staphylococcus epidermidis; assay: Antimicrobial activity against Staphylococcus epidermidis ATCC 12228 by twofold dilution technique
Bacillus subtilis [31] = assay: Antimicrobial activity against Bacillus subtilis ATCC 6633 after 18 hrs by twofold dilution technique; details: ATCC 6633, 18 h
Bacillus cereus [32] = assay: Antimicrobial activity against Bacillus cereus ATCC 11778 after 18 hrs by twofold dilution technique; details: ATCC 11778, 18 h
Enterococcus hirae [33] = assay: Antimicrobial activity against Enterococcus hirae ATCC 10541 after 18 hrs by twofold dilution technique; details: ATCC 10541, 18 h
Micrococcus luteus [34] = assay: Antimicrobial activity against Micrococcus luteus ATCC 9341 after 18 hrs by twofold dilution technique; details: ATCC 9341, 18 h
Micrococcus luteus [35] = assay: Antimicrobial activity against Micrococcus luteus ATCC 10240 by twofold dilution technique
Staphylococcus aureus [36] = assay: Antimicrobial activity against methicillin-resistant Staphylococcus aureus 136/6 by twofold dilution technique
Staphylococcus aureus [37] = assay: Antimicrobial activity against Methicillin susceptible Staphylococcus aureus 206/7 by twofold dilution technique
Staphylococcus aureus [38] = assay: Antimicrobial activity against Methicillin susceptible Staphylococcus aureus 207/7 by twofold dilution technique
Staphylococcus aureus [39] = assay: Antimicrobial activity against Methicillin susceptible Staphylococcus aureus 208/7 by twofold dilution technique
Staphylococcus aureus [40] = assay: Antimicrobial activity against Methicillin susceptible Staphylococcus aureus 212/7 by twofold dilution technique

Which results are given for `Cc1cc2c(c(O)c1-c1c(C)cc3c(c1O)/C(=C/NCCC(=O)N[C@@H](Cc1c[nH]cn1)C(=O)O)C(=O)C(O)=C3C(C)C)/C(=C/NCCC(=O)N[C@@H](Cc1c[nH]cn1)C(=O)O)C(=O)C(O)=C2C(C)C`?
MIC (Staphylococcus aureus [1]): 100 µg/mL (≈ 107 µM); MIC (Staphylococcus aureus [2]): 50 µg/mL (≈ 53.5 µM); MIC (Staphylococcus aureus [3]): 50 µg/mL (≈ 53.5 µM); MIC (Staphylococcus aureus [4]): 100 µg/mL (≈ 107 µM); MIC (Staphylococcus aureus [5]): 25 µg/mL (≈ 26.7 µM); MIC (Staphylococcus aureus [6]): 100 µg/mL (≈ 107 µM); MIC (Staphylococcus aureus [7]): 100 µg/mL (≈ 107 µM); MIC (Staphylococcus aureus [8]): 100 µg/mL (≈ 107 µM); MIC (Staphylococcus aureus [9]): 100 µg/mL (≈ 107 µM); MIC (Staphylococcus aureus [10]): 100 µg/mL (≈ 107 µM); MIC (Staphylococcus aureus [11]): 50 µg/mL (≈ 53.5 µM); MIC (Staphylococcus aureus [12]): 100 µg/mL (≈ 107 µM); MIC (Staphylococcus aureus [13]): 100 µg/mL (≈ 107 µM); MIC (Staphylococcus aureus [14]): 100 µg/mL (≈ 107 µM); MIC (Staphylococcus aureus [15]): 50 µg/mL (≈ 53.5 µM); zone of inhibition at 400 µg/disc (Staphylococcus aureus [16]): 15 mm; zone of inhibition at 400 µg/disc [17]: 14 mm; zone of inhibition at 400 µg/disc (Bacillus subtilis [18]): 13 mm; zone of inhibition at 400 µg/disc (Bacillus cereus [19]): 14 mm; zone of inhibition at 400 µg/disc (Enterococcus hirae [20]): 12 mm; diameter of the inhibition zone (DIZ) (Micrococcus luteus [21]): inactive; zone of inhibition at 400 µg/disc (Micrococcus luteus [22]): 16 mm; zone of inhibition at 400 µg/disc (Staphylococcus aureus [23]): 15 mm; zone of inhibition at 400 µg/disc (Staphylococcus aureus [24]): 15 mm; zone of inhibition at 400 µg/disc (Staphylococcus aureus [25]): 13 mm; MIC (Staphylococcus aureus [26]): 50 µg/mL (≈ 53.5 µM); MIC (Staphylococcus aureus [27]): 50 µg/mL (≈ 53.5 µM); MIC (Staphylococcus aureus [28]): 25 µg/mL (≈ 26.7 µM); MIC (Staphylococcus aureus [29]): 25 µg/mL (≈ 26.7 µM); MIC [30]: 200 µg/mL (≈ 214 µM); MIC (Bacillus subtilis [31]): 200 µg/mL (≈ 214 µM); MIC (Bacillus cereus [32]): 50 µg/mL (≈ 53.5 µM); MIC (Enterococcus hirae [33]): 50 µg/mL (≈ 53.5 µM); MIC (Micrococcus luteus [34]): 50 µg/mL (≈ 53.5 µM); MIC (Micrococcus luteus [35]): 50 µg/mL (≈ 53.5 µM); MIC (Staphylococcus aureus [36]): 25 µg/mL (≈ 26.7 µM); MIC (Staphylococcus aureus [37]): 50 µg/mL (≈ 53.5 µM); MIC (Staphylococcus aureus [38]): 100 µg/mL (≈ 107 µM); MIC (Staphylococcus aureus [39]): 100 µg/mL (≈ 107 µM); MIC (Staphylococcus aureus [40]): 100 µg/mL (≈ 107 µM)

For `CCCCOCCOCCN/C=C1\C(=O)C(O)=C(C(C)C)c2cc(C)c(-c3c(C)cc4c(c3O)/C(=C/NCCOCCOCCCC)C(=O)C(O)=C4C(C)C)c(O)c21`, which MIC (Staphylococcus aureus [1]) is on record?
The MIC was 100 µg/mL (≈ 124 µM).

What about the MIC (Staphylococcus aureus [2]) of the same compound?
The MIC was 100 µg/mL (≈ 124 µM).

What about the MIC (Staphylococcus aureus [3]) of the same compound?
The MIC was 100 µg/mL (≈ 124 µM).

And the MIC (Staphylococcus aureus [4])?
Its MIC is 100 µg/mL (≈ 124 µM).

And the MIC (Staphylococcus aureus [5])?
The MIC was 50 µg/mL (≈ 62.1 µM).

And the MIC (Staphylococcus aureus [6])?
The MIC was 100 µg/mL (≈ 124 µM).

And the MIC (Staphylococcus aureus [7])?
The MIC was 100 µg/mL (≈ 124 µM).

And the MIC (Staphylococcus aureus [8])?
Its MIC is 200 µg/mL (≈ 248 µM).

And the MIC (Staphylococcus aureus [9])?
Its MIC is 100 µg/mL (≈ 124 µM).

What about the MIC (Staphylococcus aureus [10]) of the same compound?
Its MIC is 200 µg/mL (≈ 248 µM).

And the MIC (Staphylococcus aureus [11])?
The MIC was 100 µg/mL (≈ 124 µM).

What about the MIC (Staphylococcus aureus [12]) of the same compound?
The MIC was 100 µg/mL (≈ 124 µM).

And the MIC (Staphylococcus aureus [13])?
Its MIC is 200 µg/mL (≈ 248 µM).

And the MIC (Staphylococcus aureus [14])?
Its MIC is 100 µg/mL (≈ 124 µM).

What about the MIC (Staphylococcus aureus [15]) of the same compound?
Its MIC is 50 µg/mL (≈ 62.1 µM).

What about the zone of inhibition at 400 µg/disc (Staphylococcus aureus [16]) of the same compound?
Its zone of inhibition at 400 µg/disc is 14 mm.

And the zone of inhibition at 400 µg/disc [17]?
Its zone of inhibition at 400 µg/disc is 12 mm.

And the zone of inhibition at 400 µg/disc (Bacillus subtilis [18])?
The zone of inhibition at 400 µg/disc was 12 mm.

And the zone of inhibition at 400 µg/disc (Bacillus cereus [19])?
The zone of inhibition at 400 µg/disc was 12 mm.

And the zone of inhibition at 400 µg/disc (Enterococcus hirae [20])?
Its zone of inhibition at 400 µg/disc is 12 mm.

And the “diameter of the inhibition zone (DIZ)” value (Micrococcus luteus [21])?
The value was “inactive”.

And the zone of inhibition at 400 µg/disc (Micrococcus luteus [22])?
The zone of inhibition at 400 µg/disc was 12 mm.

What about the zone of inhibition at 400 µg/disc (Staphylococcus aureus [23]) of the same compound?
Its zone of inhibition at 400 µg/disc is 14 mm.

And the zone of inhibition at 400 µg/disc (Staphylococcus aureus [24])?
Its zone of inhibition at 400 µg/disc is 14 mm.

What about the zone of inhibition at 400 µg/disc (Staphylococcus aureus [25]) of the same compound?
The zone of inhibition at 400 µg/disc was 13 mm.

And the MIC (Staphylococcus aureus [26])?
The MIC was 100 µg/mL (≈ 124 µM).

And the MIC (Staphylococcus aureus [27])?
The MIC was 100 µg/mL (≈ 124 µM).

And the MIC (Staphylococcus aureus [28])?
The MIC was 50 µg/mL (≈ 62.1 µM).

And the MIC (Staphylococcus aureus [29])?
Its MIC is 50 µg/mL (≈ 62.1 µM).

What about the MIC [30] of the same compound?
Its MIC is greater than 400 µg/mL.

What about the MIC (Bacillus subtilis [31]) of the same compound?
Its MIC is 200 µg/mL (≈ 248 µM).

What about the MIC (Bacillus cereus [32]) of the same compound?
Its MIC is 100 µg/mL (≈ 124 µM).

And the MIC (Enterococcus hirae [33])?
Its MIC is 100 µg/mL (≈ 124 µM).

What about the MIC (Micrococcus luteus [34]) of the same compound?
The MIC was 100 µg/mL (≈ 124 µM).

What about the MIC (Micrococcus luteus [35]) of the same compound?
Its MIC is 200 µg/mL (≈ 248 µM).

What about the MIC (Staphylococcus aureus [36]) of the same compound?
Its MIC is 50 µg/mL (≈ 62.1 µM).

What about the MIC (Staphylococcus aureus [37]) of the same compound?
Its MIC is 50 µg/mL (≈ 62.1 µM).

And the MIC (Staphylococcus aureus [38])?
The MIC was 100 µg/mL (≈ 124 µM).

What about the MIC (Staphylococcus aureus [39]) of the same compound?
The MIC was 100 µg/mL (≈ 124 µM).

What about the MIC (Staphylococcus aureus [40]) of the same compound?
Its MIC is 200 µg/mL (≈ 248 µM).
